Test results taken from patent US12227509B2, “Dihydropyrazolopyrazinone derivative having MGAT2 inhibitory activity” (Shionogi & Co., Ltd., priority 2019, dated 2025).
pIC50: −log10 of the molar value.

molecular target: recombinant human MGAT2 (Homo sapiens (Human), UniProt Q3SYC2); experiment: Measurement of human MGAT2 inhibitory activity; type: biochemical; settings: concentration exhibiting 50% enzyme inhibition; recombinant human MGAT2, 2-Oleoylglycerol/Oleoyl-CoA
Method: A full-length human MGAT2 gene to which a Flag-tag had been added at the N-terminal was inserted into pFastBac (from Invitrogen). A recombinant baculovirus was produced in accordance with the protocol for a Bac-to-Bac baculovirus expression system (produced by Invitrogen), and Sf-9 cells were infected therewith. The cells were collected and sonicated, and then the membrane fraction was collected through centrifugation. Western blotting analysis with an anti-Flag antibody was performed for the membrane fraction to confirm expression, and the membrane fraction was used as a recombinant human MGAT2 enzyme solution.
Solutions of the compounds of the present invention in DMSO were each aliquoted into 0.2-μL portions in a 384-well polystyrene microplate produced by Corning Incorporated, and 5 μL of an enzyme solution prepared with an assay buffer (100 mmol/L phosphate buffer (pH 7.4) containing 2 mmol/L DTT) and 5 μL of a substrate solution (100 mmol/L phosphate buffer (pH 7.4), 30 μmol/L 2-Oleoylglycerol, 10 μmol/L Oleoyl-CoA) were added thereto, and the resultant was stirred and centrifuged, and incubated in a moist chamber at room temperature for 1 hour. After enzymatic reaction, 50 μL of a quenching solution (containing 0.2 μmol/L Diolein-d5, 0.4% formic acid, and 50% isopropanol) containing Internal Standard (IS) was added to terminate the reaction, and the resultant was sealed in a plate produced by Shimadzu GLC Ltd., and then stirred and centrifuged, and measurement was performed by using an electrospray ionization method with a RapidFire360 and Agilent 6550 Q-TOF mass spectrometer. Diolein as a reaction product (P) of 2-Oleoylglycerol as the substrate and an ammonium adduct ion of the IS were detected, and the peak intensity ratio, P/IS, was calculated from the peak heights to evaluate the inhibitory activity. Inhibitory activities with/without addition of enzyme were defined as Control (+)/Control (−), respectively, and the respective % inhibitions were defined as 0% inhibition and 100% inhibition. The inhibitory activity was calculated from formula below with TIBCO Spotfire (produced by TIBCO Software Inc.)
Inhibitory activity (%)=[1−{Sample−Control (−)}/{Control (+)−Control (−)}]*100 where Sample indicates a peak intensity ratio: P/IS, when the compound of the present invention was added.

Sequence of recombinant human MGAT2 (Q3SYC2 whole entry): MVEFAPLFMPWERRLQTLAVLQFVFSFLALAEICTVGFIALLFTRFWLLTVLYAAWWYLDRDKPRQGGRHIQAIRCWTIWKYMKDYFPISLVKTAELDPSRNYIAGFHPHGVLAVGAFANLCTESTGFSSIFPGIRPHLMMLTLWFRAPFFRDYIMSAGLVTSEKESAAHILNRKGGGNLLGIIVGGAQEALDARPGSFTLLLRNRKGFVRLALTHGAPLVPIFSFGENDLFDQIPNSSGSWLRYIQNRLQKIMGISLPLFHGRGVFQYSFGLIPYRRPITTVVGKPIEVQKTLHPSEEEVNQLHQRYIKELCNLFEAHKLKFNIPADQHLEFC

SMILES	pIC50
COc1ccc(-c2nn3c(c2NC(=O)CS(C)(=O)=O)C(=O)N[C@]2(CCc4cc(OCC(F)(F)F)ccc42)C3)cc1F [Compound I-100]	8.34
CC(C)c1ccc(-c2nn3c(c2NC(=O)CS(C)(=O)=O)C(=O)N[C@@]2(CCc4cc(OCC(F)(F)F)ccc42)C3)cc1 [Compound I-49]	8.32
CCOc1ccc2c(c1)OCC[C@@]21Cn2nc(-c3ccc(F)c(F)c3)c(NC(=O)CS(C)(=O)=O)c2C(=O)N1 [Compound I-135]	8.49
CCCCCc1nn2c(c1NC(=O)CS(C)(=O)=O)C(=O)N[C@@]1(CCc3cc(OCC)ccc31)C2 [Compound I-104]	7.61
Cc1ccc(-c2nn3c(c2NC(=O)CS(C)(=O)=O)C(=O)N[C@@]2(CCc4cc(OCC(F)(F)F)ccc42)C3)cc1F [Compound I-34]	8.87
CS(=O)(=O)CC(=O)Nc1c(-c2ccc(C(F)(F)F)cc2)nn2c1C(=O)N[C@]1(CCc3cc(OCC(F)(F)F)ccc31)C2 [Compound I-81]	8.81
CS(=O)(=O)CC(=O)Nc1c(CCC2CC2)nn2c1C(=O)N[C@]1(CCc3cc(OCC(F)(F)F)ccc31)C2 [Compound I-94]	8.97
CS(=O)(=O)CC(=O)Nc1c(-c2ccc(Cl)cn2)nn2c1C(=O)N[C@@]1(CCc3cc(OCC(F)(F)F)ccc31)C2 [Compound I-60]	9.28
CS(=O)(=O)CC(=O)Nc1c(-c2ccc(C3CC3)cc2)nn2c1C(=O)N[C@]1(CCc3cc(OCC(F)(F)F)ccc31)C2 [Compound I-85]	8.54
Cc1ccc(-c2nn3c(c2NC(=O)CS(C)(=O)=O)C(=O)N[C@]2(CCc4cc(OCCCC(F)(F)F)ccc42)C3)nc1 [Compound I-75]	8.83
CCCCCc1nn2c(c1NC(=O)CS(C)(=O)=O)C(=O)N[C@@]1(CCOc3cc(OCC(F)(F)F)ccc31)C2 [Compound I-113]	8.80
CCS(=O)(=O)CC(=O)Nc1c(-c2ccc(C)cn2)nn2c1C(=O)N[C@@]1(CCc3cc(F)cc(F)c31)C2 [Compound I-122]	7.67
CS(=O)(=O)CC(=O)Nc1c(CCC2CC2)nn2c1C(=O)N[C@@]1(CCc3cc(F)cc(F)c31)C2 [Compound I-140]	7.95
Cc1ccc(-c2nn3c(c2NC(=O)c2ccno2)C(=O)N[C@@]2(CCc4cc(OCC(F)(F)F)ccc42)C3)nc1 [Compound I-42]	7.95
C[S@@](=N)(=O)CC(=O)Nc1c(-c2cc(F)c(F)c(F)c2)nn2c1C(=O)N[C@@]1(CCc3cc(OCC(F)(F)F)ccc31)C2 (single isomer, unassigned) [Compound I-106]	8.31
C[S@](=N)(=O)CC(=O)Nc1c(-c2cc(F)c(F)c(F)c2)nn2c1C(=O)N[C@@]1(CCc3cc(OCC(F)(F)F)ccc31)C2 (single isomer, unassigned) [Compound I-105]	8.77
Cc1ccc(-c2nn3c(c2NC(=O)CS(C)(=O)=O)C(=O)N[C@@]2(CCc4cc(OCCCC(F)(F)F)ccc42)C3)nc1 [Compound I-74]	8.97
CS(=O)(=O)CC(=O)Nc1c(-c2ccc(F)c(F)c2)nn2c1C(=O)N[C@]1(CCOc3cc(OCC(F)(F)F)ccc31)C2 [Compound I-71]	8.74
CS(=O)(=O)CC(=O)Nc1c(-c2ccc(F)c(F)c2)nn2c1C(=O)N[C@]1(CCc3cc(F)cc(F)c31)C2 [Compound I-148]	7.97
Cc1cccc(-c2nn3c(c2NC(=O)CS(C)(=O)=O)C(=O)N[C@]2(CCc4cc(OCC(F)(F)F)ccc42)C3)c1 [Compound I-77]	8.60
CS(=N)(=O)CC(=O)Nc1c(-c2ccc(F)c(F)c2)nn2c1C(=O)N[C@@]1(CCc3cc(OCC(F)(F)F)ccc31)C2 (stereo partly shown) [Compound I-108]	8.46
CS(=O)(=O)CC(=O)Nc1c(-c2ccc(Cl)c(F)c2)nn2c1C(=O)N[C@@]1(CCOc3cc(F)cc(F)c31)C2 [Compound I-144]	8.85
CS(=O)(=O)CC(=O)Nc1c(-c2ccc(S(C)(=O)=O)cc2)nn2c1C(=O)N[C@@]1(CCc3cc(OCC(F)(F)F)ccc31)C2 [Compound I-48]	6.38
CS(=O)(=O)CC(=O)Nc1c(-c2ccc(C#N)cc2)nn2c1C(=O)N[C@]1(CCc3cc(OCC(F)(F)F)ccc31)C2 [Compound I-87]	8.59
Cc1cc(-c2nn3c(c2NC(=O)CS(C)(=O)=O)C(=O)N[C@]2(CCc4cc(OCC(F)(F)F)ccc42)C3)ccc1F [Compound I-88]	8.93
CS(=O)(=O)CC(=O)Nc1c(-c2ccc(F)cn2)nn2c1C(=O)N[C@]1(CCc3cc(F)cc(F)c31)C2 [Compound I-146]	8.01

SMILES	pIC50
CS(=O)(=O)CC(=O)Nc1c(-c2ccc(C#N)cn2)nn2c1C(=O)NC1(CN(c3ccc(C(F)(F)F)cc3)C1)C2 [Compound I-7]	8.52
N#Cc1ccc(-c2nn3c(c2NC(=O)COC(F)(F)F)C(=O)N[C@@]2(CCc4cc(OCC(F)(F)F)ccc42)C3)nc1 [Compound I-17]	7.24
N#Cc1ccc(-c2nn3c(c2NC(=O)c2ccno2)C(=O)N[C@]2(CCc4cc(OCC(F)(F)F)ccc42)C3)nc1 [Compound I-8]	8.99
CS(=O)(=O)CC(=O)Nc1c(-c2ccc(F)c(F)c2)nn2c1C(=O)N[C@]1(CCc3cc(OCC(F)(F)F)ccc31)C2 [Compound I-89]	9.12
CCOc1ccc2c(c1)OCC[C@]21Cn2nc(-c3ccc(F)cc3)c(NC(=O)CS(C)(=O)=O)c2C(=O)N1 [Compound I-132]	8.51
CS(=O)(=O)CC(=O)Nc1c(CCC(F)(F)F)nn2c1C(=O)N[C@]1(CCc3cc(OCC(F)(F)F)ccc31)C2 [Compound I-102]	8.25
CS(=O)(=O)CC(=O)Nc1c(-c2ccccc2)nn2c1C(=O)N[C@@]1(CCc3cc(OCC(F)(F)F)ccc31)C2 [Compound I-1]	7.85
Cc1ccccc1-c1nn2c(c1NC(=O)CS(C)(=O)=O)C(=O)N[C@]1(CCc3cc(OCC(F)(F)F)ccc31)C2 [Compound I-78]	7.05
CS(=N)(=O)CC(=O)Nc1c(-c2ccc(Cl)c(F)c2)nn2c1C(=O)N[C@@]1(CCc3cc(OCC(F)(F)F)ccc31)C2 (stereo partly shown) [Compound I-73]	8.55
CNS(=O)(=O)CC(=O)Nc1c(-c2ccc(C)cn2)nn2c1C(=O)N[C@]1(CCc3cc(OCC(F)(F)F)ccc31)C2 [Compound I-41]	8.98
N#Cc1ccc(-c2nn3c(c2NC(=O)COC(F)(F)F)C(=O)N[C@]2(CCc4cc(OCC(F)(F)F)ccc42)C3)nc1 [Compound I-12]	8.02
Cc1ccc(-c2nn3c(c2NC(=O)CC(F)(F)F)C(=O)N[C@]2(CCc4cc(OCC(F)(F)F)ccc42)C3)nc1 [Compound I-39]	6.61
CS(=O)(=O)CC(=O)Nc1c(-c2ccc(F)c(F)c2)nn2c1C(=O)N[C@@]1(CCOc3cc(OCC(F)(F)F)ccc31)C2 [Compound I-67]	9.17
CS(=O)(=O)CC(=O)Nc1c(-c2ccc(OC(F)F)cc2)nn2c1C(=O)N[C@@]1(CCc3cc(OCC(F)(F)F)ccc31)C2 [Compound I-28]	8.41
CC(C)(O)c1ccc(-c2nn3c(c2NC(=O)CS(C)(=O)=O)C(=O)N[C@]2(CCc4cc(OCC(F)(F)F)ccc42)C3)cc1 [Compound I-93]	8.02
CS(=O)(=O)CC(=O)Nc1c(-c2ccc(Cl)cn2)nn2c1C(=O)N[C@]1(CCc3cc(OCC(F)(F)F)ccc31)C2 [Compound I-59]	9.32
CS(=O)(=O)CC(=O)Nc1c(-c2ccc(F)cn2)nn2c1C(=O)N[C@]1(CCOc3cc(F)cc(F)c31)C2 [Compound I-150]	7.95
Cc1ccccc1-c1nn2c(c1NC(=O)CS(C)(=O)=O)C(=O)N[C@@]1(CCc3cc(OCC(F)(F)F)ccc31)C2 [Compound I-22]	7.03
CS(=O)(=O)CC(=O)Nc1c(-c2ccc(C#N)cn2)nn2c1C(=O)N[C@]1(CCc3cc(OCC(F)(F)F)ccc31)C2 [Compound I-4]	8.71
CC(C)c1ccc(-c2nn3c(c2NC(=O)CS(C)(=O)=O)C(=O)N[C@]2(CCc4cc(OCC(F)(F)F)ccc42)C3)cc1 [Compound I-97]	8.45
CNS(=O)(=O)CC(=O)Nc1c(-c2ccc(C)cn2)nn2c1C(=O)N[C@@]1(CCc3cc(OCC(F)(F)F)ccc31)C2 [Compound I-45]	8.96
CS(=O)(=O)CC(=O)Nc1c(-c2ccc(C(F)F)cc2)nn2c1C(=O)N[C@]1(CCc3cc(OCC(F)(F)F)ccc31)C2 [Compound I-80]	8.89
Cc1ccc(-c2nn3c(c2NC(=O)c2ccno2)C(=O)N[C@]2(CCc4cc(OCC(F)(F)F)ccc42)C3)nc1 [Compound I-38]	8.27
CS(=O)(=O)CC(=O)Nc1c(-c2cc(F)c(F)c(F)c2)nn2c1C(=O)N[C@]1(CCc3cc(OCC(F)(F)F)ccc31)C2 [Compound I-92]	9.23
CCOc1ccc2c(c1)CC[C@]21Cn2nc(-c3ccc(F)cc3)c(NC(=O)CS(C)(=O)=O)c2C(=O)N1 [Compound I-116]	8.17
Cc1cc(-c2nn3c(c2NC(=O)CS(C)(=O)=O)C(=O)N[C@@]2(CCc4cc(OCC(F)(F)F)ccc42)C3)ccc1F [Compound I-32]	8.92
